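These data come from cells grown in 96-well plates and exposed to compound for 48 hours at five concentrations. GI50 marks 50% less growth.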 Activity calls are given as the source filed them. Rule as the data show it: active = GI50 up to about 1.1 µM and inactive = higher.
Columns and labels:
Assay in all cases: NCI tumour cell line growth inhibition, 48 h
786-0 = tested on: 786-0
BT-549 = tested on: BT-549
HCT-116 = tested on: HCT-116
HCT-15 = tested on: HCT-15
HT-29 = tested on: HT-29
IGROV-1 = tested on: IGROV-1
K562 = tested on: K562
LOX IMVI = tested on: LOX IMVI
M14 = tested on: M14
MDA-MB-435 = tested on: MDA-MB-435
NCI-H23 = tested on: NCI-H23
OVCAR-3 = tested on: OVCAR-3
OVCAR-8 = tested on: OVCAR-8
RPMI-8226 = tested on: RPMI-8226
SK-MEL-2 = tested on: SK-MEL-2
SK-OV-3 = tested on: SK-OV-3
T47D = tested on: T47D
A498 = tested on: A498
UO-31 = tested on: UO-31

Measured: GI50

Cc1cc2nc3c(C#N)c4c(c(Nc5ccc(F)cc5)n3c2cc1C)CCC4
inactive: 786-0 > 100 µM | BT-549 > 100 µM | HCT-116 > 100 µM | HT-29 > 100 µM | IGROV-1 > 100 µM | K562 > 100 µM | LOX IMVI > 100 µM | M14 > 100 µM | MDA-MB-435 > 100 µM | NCI-H23 > 100 µM | OVCAR-3 > 100 µM | OVCAR-8 > 100 µM | RPMI-8226 > 100 µM | SK-MEL-2 > 100 µM | SK-OV-3 > 100 µM | T47D > 100 µM
> 100 µM: HCT-15

Nn1c(=O)[nH]c2ncn(Cc3ccccc3)c2c1=O
inactive: 786-0 > 100 µM | A498 > 100 µM | BT-549 > 100 µM | HCT-116 > 100 µM | HT-29 > 100 µM | IGROV-1 > 100 µM | K562 > 100 µM | M14 > 100 µM | MDA-MB-435 > 100 µM | NCI-H23 > 100 µM | OVCAR-3 > 100 µM | OVCAR-8 > 100 µM | SK-MEL-2 > 100 µM | SK-OV-3 > 100 µM | T47D > 100 µM | UO-31 > 100 µM
> 100 µM: HCT-15

Nc1nc(N)nc(-c2cnccn2)n1
> 100 µM: HCT-15
inactive: 786-0 > 100 µM | A498 > 100 µM | BT-549 > 100 µM | HCT-116 > 100 µM | IGROV-1 > 100 µM | K562 > 100 µM | LOX IMVI > 100 µM | M14 > 100 µM | MDA-MB-435 > 100 µM | NCI-H23 > 100 µM | OVCAR-3 > 100 µM | OVCAR-8 > 100 µM | SK-MEL-2 > 100 µM | SK-OV-3 > 100 µM | T47D > 100 µM | UO-31 > 100 µM

Cc1ccc(C)c2c1CC(Cc1ccccc1C(=O)O)C2=O (stereo not drawn)
inactive: 786-0 > 100 µM | BT-549 > 100 µM | HCT-116 > 100 µM | HT-29 > 100 µM | IGROV-1 > 100 µM | K562 > 100 µM | LOX IMVI > 100 µM | M14 > 100 µM | MDA-MB-435 > 100 µM | NCI-H23 > 100 µM | OVCAR-3 > 100 µM | OVCAR-8 > 100 µM | SK-MEL-2 > 100 µM | SK-OV-3 > 100 µM | T47D > 100 µM | UO-31 > 100 µM
> 100 µM: HCT-15

Reference: ChEMBL document CHEMBL1201862, “PubChem BioAssay data set” (2004)
